Key:
Test in all cases: relative viability (nuclei count vs DMSO), 5 days (fraction); higher = more cells survive
[1] = compound: CCC1=CN=CN=C1N2CCN(CC2)CC3=NC4=C(N3)C=C(C=C4)C(F)(F)F + CS(=O)(=O)CCNCc1ccc(-c2ccc3ncnc(Nc4ccc(OCc5cccc(F)c5)c(Cl)c4)c3c2)o1 [Lapatinib] (partner 2 µM)
In short: (§1)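 Each reported value is a median over duplicate plates. It expresses relative viability: treated-well nuclei count divided by vehicle-well nuclei count. Lung cancer cell lines in 1536-well plates were dosed by pin tool a day after seeding, alone with one drug or with a fixed anchor-drug dose plus five library-drug doses (not always all listed) in √10 steps, and nuclei were counted after 5 days.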

[2] = compound: CCC1=CN=CN=C1N2CCN(CC2)CC3=NC4=C(N3)C=C(C=C4)C(F)(F)F + CS(=O)(=O)N1CCN(Cc2cc3nc(-c4cccc5[nH]ncc45)nc(N4CCOCC4)c3s2)CC1 [Pictilisib] (partner 1 µM)
In short: as §1

[3] = compound: CCC1=CN=CN=C1N2CCN(CC2)CC3=NC4=C(N3)C=C(C=C4)C(F)(F)F + Cc1nc(Nc2ncc(C(=O)Nc3c(C)cccc3Cl)s2)cc(N2CCN(CCO)CC2)n1 [Dasatinib] (partner 0.075 µM)
In short: as §1

[4] = compound: CCn1c(-c2nonc2N)nc2cnc(Oc3cccc(NC(=O)c4ccc(OCCN5CCOCC5)cc4)c3)cc21 + CC(=O)Nc1cccc(-n2c(=O)n(C3CC3)c(=O)c3c(Nc4ccc(I)cc4F)n(C)c(=O)c(C)c32)c1 [Trametinib] (partner 0.02 µM)
In short: as §1

Cell Line: UMC-11
- relative viability ([1]; first compound 0.04 µM): 0.808
- relative viability ([1]; first compound 0.1265 µM): 0.974
- relative viability ([1]; first compound 0.4 µM): 0.905
- relative viability ([1]; first compound 1.265 µM): 0.719
- relative viability ([1]; first compound 4 µM): 0.977
- relative viability ([2]; first compound 0.04 µM): 0.723
- relative viability ([2]; first compound 0.1265 µM): 0.832
- relative viability ([2]; first compound 0.4 µM): 0.706
- relative viability ([2]; first compound 1.265 µM): 0.548
- relative viability ([2]; first compound 4 µM): 0.741
- relative viability ([3]; first compound 0.04 µM): 0.531
- relative viability ([3]; first compound 0.1265 µM): 0.436
- relative viability ([3]; first compound 0.4 µM): 0.42
- relative viability ([3]; first compound 1.265 µM): 0.398
- relative viability ([3]; first compound 4 µM): 0.492
- relative viability ([4]; first compound 0.04 µM): 0.609
- relative viability ([4]; first compound 0.1265 µM): 0.607
- relative viability ([4]; first compound 0.4 µM): 0.298
- relative viability ([4]; first compound 1.265 µM): 0.0887
- relative viability ([4]; first compound 4 µM): 0.963

Reference: the supplement of paper PMC10307832
